ChEMBL document CHEMBL1122819, “Quinazoline antifolates inhibiting thymidylate synthase: variation of the N10 substituent” (J Med Chem, 1985)

Key:
L1210 [1] = assay: (§1) Growth inhibition was evaluated for L1210 cells in culture; format: functional; conditions: Mus musculus, read-out: ID50 (the source's name)
L1210 [2] = assay: as §1; format: functional, Mus musculus

C#CCN(Cc1ccc2[nH]c(N)nc(=O)c2c1)c1ccc(C(=O)NC(CCC(=O)O)C(=O)O)cc1 (stereo not given) gave an IC50 (L1210 [1]) of 5 µM.
For Nc1nc(O)c2cc(CN(CC3CC3)c3ccc(C(=O)NC(CCC(=O)O)C(=O)O)cc3)ccc2n1 (stereo not given), the IC50 (L1210 [1]) was > 100 µM.
N#CCN(Cc1ccc2nc(N)nc(O)c2c1)c1ccc(C(=O)NC(CCC(=O)O)C(=O)O)cc1 (stereo not given) gave an IC50 (L1210 [1]) of 5 µM.
Nc1nc(O)c2cc(CNc3ccc(C(=O)NC(CCC(=O)O)C(=O)O)cc3)ccc2n1 (stereo not given) [DIDEAZAFOLATE] gave an IC50 (L1210 [1]) of 5 µM.
In the case of Nc1nc(O)c2cc(CN(CCC(=O)O)c3ccc(C(=O)NC(CCC(=O)O)C(=O)O)cc3)ccc2n1 (stereo not given), the IC50 (L1210 [1]) is reported as > 270 µM.
For Nc1nc(O)c2cc(CN(Cc3cccc(F)c3)c3ccc(C(=O)NC(CCC(=O)O)C(=O)O)cc3)ccc2n1 (stereo not given), the IC50 (L1210 [1]) was > 200 µM.
Molecule Nc1nc(O)c2cc(CN(Cc3cnc(O)nc3O)c3ccc(C(=O)NC(CCC(=O)O)C(=O)O)cc3)ccc2n1 (stereo not given) has an IC50 (L1210 [1]) of 5 µM.
Nc1nc(O)c2cc(CN(CC(=O)c3ccccc3)c3ccc(C(=O)NC(CCC(=O)O)C(=O)O)cc3)ccc2n1 (stereo not given) was tested, and the IC50 (L1210 [1]) was 100 µM.
In the case of CC(C)N(Cc1ccc2nc(N)nc(O)c2c1)c1ccc(C(=O)NC(CCC(=O)O)C(=O)O)cc1 (stereo not given), the IC50 (L1210 [1]) is reported as 400 µM.
Nc1nc(O)c2cc(CN(CC(=O)O)c3ccc(C(=O)NC(CCC(=O)O)C(=O)O)cc3)ccc2n1 (stereo not given) was tested, and the IC50 (L1210 [1]) was 27 µM.
With N#CCCCN(Cc1ccc2nc(N)nc(O)c2c1)c1ccc(C(=O)NC(CCC(=O)O)C(=O)O)cc1 (stereo not given) the IC50 (L1210 [1]) was > 300 µM and the Inhibition (L1210 [2]) was 10%.
Work on Nc1nc(O)c2cc(CN(CCF)c3ccc(C(=O)NC(CCC(=O)O)C(=O)O)cc3)ccc2n1 (stereo not given) yielded an IC50 (L1210 [1]) of 16 µM.
NC(=O)CN(Cc1ccc2nc(N)nc(O)c2c1)c1ccc(C(=O)NC(CCC(=O)O)C(=O)O)cc1 (stereo not given) gave an IC50 (L1210 [1]) of 87 µM.
Work on Nc1nc(O)c2cc(CN(CCCO)c3ccc(C(=O)NC(CCC(=O)O)C(=O)O)cc3)ccc2n1 (stereo not given) yielded an IC50 (L1210 [1]) of 54 µM.
